The target in this experiment is farnesyl-protein transferase (Homo sapiens, UniProt P49354+P49356). As to the kind of experiment: FPT inhibition (in vitro farnesyl protein transferase inhibition). The format is biochemical.

What is called IC50 is the concentration that inhibits the measured activity by half. For orientation: inhibition means the relative decrease from the control value, in per cent. Read a low inhibition as a response near the control.

In turn, `O=C(NCc1cccnc1)C1CCCN1C1c2ncc(Br)cc2CCc2cc(Cl)cc(Br)c21` (single isomer, unassigned) [Example 2 Isomer B, 1-(3,10-dibromo-8-chloro-6,11-dihydro-5H-benzo[5,6]cyclohepta[1,2-b]pyridine-11-yl)-N-(3-pyridinylmethyl)-2-pyrrolidine carboxamide] yielded a concentration for half-maximal inhibition (IC50) of 5.2 nM. This counts as single-digit nanomolar.

Take `O=C(NCc1cccnc1)[C@@H]1CCCN1C1c2ccc(Cl)cc2CCc2cc(Br)cnc21` (single isomer, unassigned) [Example 1 Isomer B, 1-(3-Brorno-8-chloro-6,11-dihydro-5H-benzo[5,6]cyclohepta[1,2-b]pyridine-11-yl)-N-(3-pyridinylmethyl)2-pyrrolidine carboxamide]: the IC50 amounted to 140 nM.

Turning to `O=C(NCc1cccnc1)C1CCN1C1c2ccc(Cl)cc2CCc2cc(Br)cnc21` (single isomer, unassigned) [Example 3 Isomer B, 1-(3-bromo-8-chloro-6,11-dihydro-5H-benzo[5,6]cyclohepta[1,2-b]pyridine-11-yl)-N-(3-pyridinylmethyl)2-azetidine carboxamide], the inhibition at 0.1 µM (@0.1 µM) was found to be 17%.

Take `O=C(NCc1cccnc1)C1CCN1C1c2ccc(Cl)cc2CCc2cc(Br)cnc21` (single isomer, unassigned) [Example 3 Isomer A, 1-(3-bromo-8-chloro-6,11-dihydro-5H-benzo[5,6]cyclohepta[1,2-b]pyridine-11-yl)-N-(3-pyridinylmethyl)2-azetidine carboxamide]: 1050 nM corresponded to half-maximal inhibition (IC50).

On to `O=C(NCc1cccnc1)C1CCCN1C1c2ncc(Br)cc2CCc2cc(Cl)cc(Br)c21` (single isomer, unassigned) [Example 2 Isomer A, 1-(3,10-dibromo-8-chloro-6,11-dihydro-5H-benzo[5,6]cyclohepta[1,2-b]pyridine-11-yl)-N-(3-pyridinylmethyl)-2-pyrrolidine carboxamide], for which the inhibition at 0.3 µM (@ 0.3 µM) came out at 15%.

Take `O=C(NCc1cccnc1)[C@@H]1CCCN1C1c2ccc(Cl)cc2CCc2cc(Br)cnc21` (single isomer, unassigned) [Example 1 Isomer A, 1-(3-Brorno-8-chloro-6,11-dihydro-5H-benzo[5,6]cyclohepta[1,2-b]pyridine-11-yl)-N-(3-pyridinylmethyl)2-pyrrolidine carboxamide]: it took 59 nM to reach half-maximal inhibition (IC50).
